Results published in publication PMC3997178 (Neuron, 2014).
pKi: −log10 of the molar value.

Key:
NMDA receptors = conditions: ref Frizelle et al., 2006; Urwyler et al., 1996; cited from earlier work
[1] = tested on: GluN2A containing NMDA receptors; conditions: ref Frizelle et al., 2006; cited from earlier work
[2] = target: GluN1/GluN2A Tyr730Leu NMDA receptor (Rattus norvegicus, UniProt Q00959, Y730L); assay: TEVC mutational analysis, GluN2A Tyr730Leu; conditions: Tyr730Leu vs wild type
[3] = target: GluN1/GluN2A Phe416Ala NMDA receptor (Rattus norvegicus, UniProt Q00959, F416A); assay: TEVC mutational analysis, GluN2A Phe416Ala; conditions: Phe416Ala vs wild type
GluN1/GluN2A Phe416Ala NMDA receptor, sequence (Q00959 20-1464 F416A limits assumed, other chains not shown): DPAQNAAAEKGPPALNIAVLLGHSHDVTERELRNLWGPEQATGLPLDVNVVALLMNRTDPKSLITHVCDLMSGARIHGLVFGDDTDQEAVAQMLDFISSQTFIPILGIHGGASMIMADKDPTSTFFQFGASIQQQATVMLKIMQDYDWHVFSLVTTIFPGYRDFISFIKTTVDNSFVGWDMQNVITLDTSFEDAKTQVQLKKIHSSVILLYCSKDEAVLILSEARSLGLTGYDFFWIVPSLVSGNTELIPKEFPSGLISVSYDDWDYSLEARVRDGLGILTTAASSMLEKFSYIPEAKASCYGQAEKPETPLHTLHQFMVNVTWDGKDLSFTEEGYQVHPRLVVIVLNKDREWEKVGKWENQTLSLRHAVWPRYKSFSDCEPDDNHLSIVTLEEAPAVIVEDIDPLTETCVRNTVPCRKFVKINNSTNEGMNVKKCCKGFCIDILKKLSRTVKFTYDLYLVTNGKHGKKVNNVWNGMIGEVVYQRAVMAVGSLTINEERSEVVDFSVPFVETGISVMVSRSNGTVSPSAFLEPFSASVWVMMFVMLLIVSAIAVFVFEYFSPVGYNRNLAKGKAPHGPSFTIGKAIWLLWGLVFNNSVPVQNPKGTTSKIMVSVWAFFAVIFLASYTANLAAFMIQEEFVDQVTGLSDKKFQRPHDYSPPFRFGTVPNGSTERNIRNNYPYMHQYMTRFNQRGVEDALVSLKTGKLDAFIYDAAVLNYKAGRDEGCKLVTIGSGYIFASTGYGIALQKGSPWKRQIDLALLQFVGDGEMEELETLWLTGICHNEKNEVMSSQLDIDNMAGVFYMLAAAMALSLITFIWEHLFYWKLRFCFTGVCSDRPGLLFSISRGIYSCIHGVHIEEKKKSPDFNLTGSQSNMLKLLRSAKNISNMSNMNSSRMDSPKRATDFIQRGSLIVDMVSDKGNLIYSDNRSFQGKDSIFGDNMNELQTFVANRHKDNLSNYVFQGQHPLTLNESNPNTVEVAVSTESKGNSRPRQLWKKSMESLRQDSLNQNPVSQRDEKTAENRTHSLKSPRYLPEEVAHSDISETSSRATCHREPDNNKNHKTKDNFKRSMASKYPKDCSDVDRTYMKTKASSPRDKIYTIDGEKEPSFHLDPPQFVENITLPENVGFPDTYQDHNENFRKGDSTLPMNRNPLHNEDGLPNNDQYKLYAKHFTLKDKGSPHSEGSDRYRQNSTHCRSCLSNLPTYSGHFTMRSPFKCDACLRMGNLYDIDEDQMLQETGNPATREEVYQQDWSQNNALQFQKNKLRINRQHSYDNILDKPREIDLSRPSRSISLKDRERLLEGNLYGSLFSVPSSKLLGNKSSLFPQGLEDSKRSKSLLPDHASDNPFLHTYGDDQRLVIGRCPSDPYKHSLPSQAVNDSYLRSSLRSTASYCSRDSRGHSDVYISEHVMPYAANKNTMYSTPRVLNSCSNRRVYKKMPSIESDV

[4] = target: GluN1/GluN2A Tyr730Met NMDA receptor (Rattus norvegicus, UniProt Q00959, Y730M); assay: TEVC mutational analysis, GluN2A Tyr730Met; conditions: Tyr730Met vs wild type
[5] = target: GluN1/GluN2A Val734Ala NMDA receptor (Rattus norvegicus, UniProt Q00959, V734A); assay: TEVC mutational analysis, GluN2A Val734Ala; conditions: Val734Ala vs wild type
non-NMDA receptors = assay: D-AP5 effect on non-NMDA receptors; format: cell-based; conditions: as high as 100 µM
GluK1 Met722Tyr = GluK1 Met722Tyr (Rattus norvegicus, UniProt P22756, M752Y); assay: D-AP5 sensitivity of GluK1 Met722 to tyrosine mutant; format: cell-based; conditions: data not shown
GluK1 Met722Tyr, sequence (P22756 31-949 M752Y): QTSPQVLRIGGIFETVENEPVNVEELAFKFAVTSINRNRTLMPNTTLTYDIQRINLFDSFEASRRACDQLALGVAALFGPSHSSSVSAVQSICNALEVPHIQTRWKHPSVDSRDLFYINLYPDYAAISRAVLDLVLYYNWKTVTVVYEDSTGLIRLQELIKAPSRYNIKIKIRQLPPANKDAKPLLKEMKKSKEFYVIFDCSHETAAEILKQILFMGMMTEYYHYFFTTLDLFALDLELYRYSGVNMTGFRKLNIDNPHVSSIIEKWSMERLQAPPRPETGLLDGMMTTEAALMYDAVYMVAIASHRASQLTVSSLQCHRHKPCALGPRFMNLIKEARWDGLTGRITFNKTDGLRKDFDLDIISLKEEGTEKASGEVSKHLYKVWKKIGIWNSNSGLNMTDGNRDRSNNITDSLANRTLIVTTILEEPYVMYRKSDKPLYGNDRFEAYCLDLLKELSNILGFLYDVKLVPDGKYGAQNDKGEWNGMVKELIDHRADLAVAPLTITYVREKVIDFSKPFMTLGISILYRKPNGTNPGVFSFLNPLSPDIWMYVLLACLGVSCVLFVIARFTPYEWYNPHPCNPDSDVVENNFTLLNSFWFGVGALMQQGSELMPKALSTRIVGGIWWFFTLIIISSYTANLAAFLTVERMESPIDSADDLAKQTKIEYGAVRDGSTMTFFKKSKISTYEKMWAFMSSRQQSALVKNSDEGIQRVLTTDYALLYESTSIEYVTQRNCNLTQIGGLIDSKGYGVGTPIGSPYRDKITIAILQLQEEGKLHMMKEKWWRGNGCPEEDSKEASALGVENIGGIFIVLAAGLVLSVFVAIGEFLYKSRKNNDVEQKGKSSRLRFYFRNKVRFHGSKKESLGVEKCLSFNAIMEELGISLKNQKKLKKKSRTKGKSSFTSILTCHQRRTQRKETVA

GluA2 Leu704Tyr = GluA2 Leu704Tyr (Rattus norvegicus, UniProt P19491, L504Y/L725Y); assay: D-AP5 sensitivity of GluA2 Leu704 to tyrosine mutant; format: cell-based; conditions: data not shown
GluA2 Leu704Tyr, sequence (P19491 22-883 isoform P19491-2 L504Y/L725Y): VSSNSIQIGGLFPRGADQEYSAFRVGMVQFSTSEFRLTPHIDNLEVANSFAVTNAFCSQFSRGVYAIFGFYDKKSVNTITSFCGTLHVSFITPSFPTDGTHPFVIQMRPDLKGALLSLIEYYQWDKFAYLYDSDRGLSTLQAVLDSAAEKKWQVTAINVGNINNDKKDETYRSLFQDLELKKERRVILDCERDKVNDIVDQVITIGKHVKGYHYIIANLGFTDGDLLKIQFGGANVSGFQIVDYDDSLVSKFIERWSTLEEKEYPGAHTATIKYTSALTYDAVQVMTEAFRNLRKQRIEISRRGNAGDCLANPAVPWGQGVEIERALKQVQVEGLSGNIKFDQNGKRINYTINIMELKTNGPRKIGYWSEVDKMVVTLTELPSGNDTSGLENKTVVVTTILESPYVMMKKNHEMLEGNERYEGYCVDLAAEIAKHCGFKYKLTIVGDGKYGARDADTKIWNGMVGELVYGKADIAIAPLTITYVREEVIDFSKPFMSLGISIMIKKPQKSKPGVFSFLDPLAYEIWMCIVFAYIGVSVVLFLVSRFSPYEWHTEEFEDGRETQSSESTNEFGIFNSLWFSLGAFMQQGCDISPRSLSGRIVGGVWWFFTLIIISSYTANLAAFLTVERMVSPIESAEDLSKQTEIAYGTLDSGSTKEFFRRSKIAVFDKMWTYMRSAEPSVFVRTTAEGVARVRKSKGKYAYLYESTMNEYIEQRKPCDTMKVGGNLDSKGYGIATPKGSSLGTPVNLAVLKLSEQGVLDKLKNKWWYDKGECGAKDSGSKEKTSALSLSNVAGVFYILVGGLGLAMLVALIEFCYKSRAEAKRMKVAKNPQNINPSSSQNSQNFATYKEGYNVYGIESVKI

[6] = target: GluN1/GluN2A Val713Ala NMDA receptor (Rattus norvegicus, UniProt Q00959, V713A); assay: TEVC mutational analysis, GluN2A Val713Ala; conditions: Val713Ala vs wild type
GluN1/GluN2A Val713Ala NMDA receptor, sequence (Q00959 20-1464 V713A limits assumed, other chains not shown): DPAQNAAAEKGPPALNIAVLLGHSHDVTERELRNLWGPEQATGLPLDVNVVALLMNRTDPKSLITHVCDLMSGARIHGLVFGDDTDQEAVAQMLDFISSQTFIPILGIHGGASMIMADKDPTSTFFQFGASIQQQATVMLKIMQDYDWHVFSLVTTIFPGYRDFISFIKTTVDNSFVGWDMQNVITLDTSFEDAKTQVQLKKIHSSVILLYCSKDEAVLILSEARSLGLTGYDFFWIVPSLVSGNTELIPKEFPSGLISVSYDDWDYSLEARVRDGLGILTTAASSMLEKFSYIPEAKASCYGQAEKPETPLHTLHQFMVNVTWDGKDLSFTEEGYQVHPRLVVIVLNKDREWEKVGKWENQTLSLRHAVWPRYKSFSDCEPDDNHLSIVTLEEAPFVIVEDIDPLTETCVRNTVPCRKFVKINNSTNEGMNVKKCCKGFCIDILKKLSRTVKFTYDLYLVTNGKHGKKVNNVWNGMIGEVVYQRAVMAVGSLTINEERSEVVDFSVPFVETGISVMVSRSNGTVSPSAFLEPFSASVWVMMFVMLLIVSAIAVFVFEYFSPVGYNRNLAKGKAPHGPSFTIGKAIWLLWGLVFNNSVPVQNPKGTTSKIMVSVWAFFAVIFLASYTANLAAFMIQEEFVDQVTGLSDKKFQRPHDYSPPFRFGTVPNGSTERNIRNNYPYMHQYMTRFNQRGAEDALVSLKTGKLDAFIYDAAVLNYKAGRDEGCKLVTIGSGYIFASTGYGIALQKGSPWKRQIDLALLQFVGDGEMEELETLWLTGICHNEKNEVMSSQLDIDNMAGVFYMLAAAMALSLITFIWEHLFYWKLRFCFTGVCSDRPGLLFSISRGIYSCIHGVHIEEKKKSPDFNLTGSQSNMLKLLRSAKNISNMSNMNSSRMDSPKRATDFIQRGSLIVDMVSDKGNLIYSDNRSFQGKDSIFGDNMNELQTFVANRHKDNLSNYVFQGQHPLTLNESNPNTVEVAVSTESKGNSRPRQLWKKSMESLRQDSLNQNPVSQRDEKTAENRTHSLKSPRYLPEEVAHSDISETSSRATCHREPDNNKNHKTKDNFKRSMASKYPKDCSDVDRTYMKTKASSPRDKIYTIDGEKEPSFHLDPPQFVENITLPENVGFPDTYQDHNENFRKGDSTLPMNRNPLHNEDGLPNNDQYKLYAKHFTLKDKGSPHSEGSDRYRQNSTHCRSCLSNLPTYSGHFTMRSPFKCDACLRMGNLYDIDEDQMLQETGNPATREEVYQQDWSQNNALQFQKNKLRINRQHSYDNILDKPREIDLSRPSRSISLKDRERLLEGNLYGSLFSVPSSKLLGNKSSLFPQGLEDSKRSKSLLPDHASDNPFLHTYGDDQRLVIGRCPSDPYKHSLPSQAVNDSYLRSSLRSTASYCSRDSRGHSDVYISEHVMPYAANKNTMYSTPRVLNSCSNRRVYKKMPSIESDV

[7] = target: GluN1/GluN2A Lys738Met NMDA receptor (Rattus norvegicus, UniProt Q00959, K738M); assay: TEVC mutational analysis, GluN2A Lys738Met; conditions: Lys738Met vs wild type
[8] = target: GluN1/GluN2A Tyr737Ala NMDA receptor (Rattus norvegicus, UniProt Q00959, Y737A); assay: TEVC mutational analysis, GluN2A Tyr737Ala; conditions: Tyr737Ala vs wild type
[9] = target: GluN1/GluN2A Tyr730Phe NMDA receptor (Rattus norvegicus, UniProt Q00959, Y730F); assay: TEVC mutational analysis, GluN2A Tyr730Phe; conditions: Tyr730Phe vs wild type
[10] = tested on: GluN1/GluN2D NMDA receptors; assay: TEVC inhibition of currents, GluN1/GluN2D in Xenopus oocytes; format: cell-based, rat
[11] = target: GluN1/GluN2A NMDA receptors (Rattus norvegicus, UniProt Q00959); format: cell-based
[12] = target: GluK1 kainate receptors (Tyr506Cys Leu768Cys) (Rattus norvegicus, UniProt P22756, L798C/Y536C); assay: TEVC inhibition of L-glutamate induced currents, non-desensitizing GluK1 mutant; format: cell-based
GluK1 kainate receptors (Tyr506Cys Leu768Cys), sequence (P22756 31-949 Y536C/L798C): as the sequence (P22756 31-949 M752Y) above, with Y506C, Y722M, L768C counted along it

[13] = target: GluA2 AMPA receptors (Leu483Tyr, flip) (Rattus norvegicus, UniProt P19491, L504Y); assay: TEVC inhibition of L-glutamate induced currents, non-desensitizing GluA2 mutant; format: cell-based
GluA2 AMPA receptors (Leu483Tyr, flip), sequence (P19491 22-883 isoform P19491-2 L504Y limits assumed): as the sequence (P19491 22-883 isoform P19491-2 L504Y/L725Y) above, with Y704L counted along it

[14] = target: GluN1/GluN2A NMDA receptors (Rattus norvegicus, UniProt P35439+Q00959); format: cell-based
[15] = 100 µM compound in the presence of 30 µM glutamate

N[C@@H](Cc1cc(-c2ccc(Cl)cc2Cl)cc(CP(=O)(O)O)c1O)C(=O)O [SDZ220-040]
potency (NMDA receptors): nanomolar potency

C[C@H](N[C@@H](c1cccc2[nH]c(=O)c(=O)[nH]c12)P(=O)(O)O)c1ccc(Br)cc1 [NVP-AAM077]
specificity toward GluN2A containing over GluN2B containing NMDA receptors [1]: 5 fold | potency (NMDA receptors): nanomolar potency

N[C@H](CCCP(=O)(O)O)C(=O)O [D-AP5, D-(−)-2-Amino-5-phosphonopentanoic acid]
fold increase in Ki [2]: ~ 20 fold | effect of mutation on sensitivity [3]: minor effects | fold increase in Ki [4]: ~ 80 fold | effect of mutation on potency [5]: only minor effects | inhibitory effect (non-NMDA receptors): no inhibitory effect | sensitivity to D-AP5 (GluK1 Met722Tyr): does not confer sensitivity | sensitivity to D-AP5 (GluA2 Leu704Tyr): does not confer sensitivity | effect of mutation on sensitivity [6]: minor effects | effect of mutation on potency [7]: only minor effects | effect of mutation on potency [8]: only minor effects | change in sensitivity [9]: five-fold decrease in sensitivity

O=C(O)C1NCCN(C(=O)c2ccc3c(ccc4ccccc43)c2)C1C(=O)O (single isomer, unassigned; (+)) [(+)-PPDA, 1-(Phenanthrene-2-carbonyl)piperazine-2,3-dicarboxylic acid]
fold higher potency toward GluN1/GluN2D than GluN1/GluN2A [10]: 5–6 fold | fold weaker potency than (−)-PPDA ([10]; dose-response inhibition): 6–7 fold | fold weaker potency than (−)-PPDA ([11]; dose-response inhibition, TEVC): 6–7 fold

O=C(O)C1NCCN(C(=O)c2ccc3c(ccc4ccccc43)c2)C1C(=O)O (single isomer, unassigned; (-)) [(−)-PPDA, 1-(Phenanthrene-2-carbonyl)piperazine-2,3-dicarboxylic acid]
change in sensitivity [2]: little or no change | pKi [12]: 5.93 | inhibition of current [12, 15]: completely inhibited | effect of mutation on sensitivity [3]: minor effects | change in sensitivity [4]: little or no change | effect of mutation on potency [5]: decreases the (−)-PPDA sensitivity | pKi [13]: 5.11 | inhibition of current [13, 15]: completely inhibited | effect of mutation on sensitivity [6]: minor effects | effect of mutation on potency [7]: increases the (−)-PPDA sensitivity | effect of mutation on potency [8]: decreases the (−)-PPDA sensitivity | change in sensitivity [9]: increase in (−)-PPDA sensitivity | pKi [14]: 6.09 | inhibition of current ([11]; 100 µM compound in the presence of agonists (100 µM glycine/30 µM glutamate)): completely inhibited
